This is an account of results in patent US10041047B2, “Compositions and methods for epithelial stem cell expansion and culture” (The Brigham and Women's Hospital, Inc., priority 2013, dated 2018).

One test relates to single Lgr5-GFP cells. Description: Culture of FACS-sorted single Lgr5-GFP cells: colony formation, proliferation, GFP expression. The test is classed as cell-based. Conditions: for GFP expression / cell proliferation: single GFP-high cells, 7 day culture with ENR. The procedure: Crypts and single Lgr5-GFP cells were isolated as previously described (Sato et al., 2009). Briefly, the proximal half of the small intestine was harvested, opened longitudinally, and washed with cold PBS to remove luminal content. The tissue was then cut into 2-4 mm pieces with scissors and further washed 5-10 times with cold PBS by pipetting up and down using a 10-ml pipette. Tissue fragments were incubated with 2 mM EDTA in PBS for 30 min on ice. After removal of EDTA, tissue fragments were washed with PBS to release crypts. Supernatant fractions enriched in crypts were collected, passed through a 70 μm cell strainer and centrifuged at 300 g for 5 minutes. The cell pellet was re-suspended with cell culture media without growth factors and centrifuged at 150 g to remove single cells. Crypts were then cultured or used for single cell isolation. To obtain single cells, crypts were incubated in culture medium for 45 minutes at 37° C. and triturated with a glass pipette. Dissociated cells were passed through 20 μm cell strainer, negative stained with propidium iodide and single viable GFP-high cells were sorted by flow cytometry (FACS Aria, BD) as previously described (Sato et al., 2009). […] Isolated crypts or single cells were cultured as previously described (Sato et al., 2009) with minimal modification. Briefly, crypts or single cells were entrapped in Matrigel and plated at the center of wells in a 24-well plate. After polymerization of Matrigel (growth factor reduced; BD Bioscience), 500 μl of culture medium (Advanced DMEM/F12 (Life Technologies)) was added containing growth factors including EGF (50 ng/ml, Life Technologies), Noggin (100 ng/ml, Peprotech) and R-spondin 1 (500 ng/ml, R&D) and small molecules including CHIR99021 (3 μM, Stemgent) and Valproic Acid (1 mM, Sigma-Aldrich). For comparison of different culture conditions, small molecules or growth factors were added to freshly isolated crypts immediately after plating in Matrigel to test the ability to minimize potential differentiation of the ISC within the crypts and thus sustain crypt cultures. Cell culture media was changed every other day. For single cell culture, cells were embedded in Matrigel containing Jagged-1 peptide (1 μM; AnaSpec) and Y-27632 (10 μM; Tocris) was added for the first 2 days. Cells were passaged either as cell colonies as previously described (Sato et al., 2009) or as single cells. For single cell passage, cell culture medium was removed and Accutase (Life Technologies) was added. After incubation at 37° C. for 10-20 minutes, cell colonies were dissociated into single cells by pipetting. Cells were then washed, embedded in fresh Matrigel and plated into 24-well plates. Cells cultured in the CV condition were passaged every 6 days at a 1:20 split ratio.
The Rho kinase inhibitor Y-27632, which inhibits anoikis of single stem cells (Watanabe et al., 2007), was added for the first two days as previously described (Sato et al., 2009).

The next test concerns Lgr5+ stem cells. The test is described as follows: Controlled differentiation of Lgr5+ stem cells after CV culture (RT-PCR and staining of differentiation markers). Format: cell-based, mouse. Particulars: colonies from 6 days CV, then 4 days with ENR plus agents (FIG. 7B).
Test [1] concerns Lgr5+ stem/progenitor cells derived from the mouse inner ear. The test is described as follows: Culture of inner ear (cochlear) Lgr5-GFP epithelial cells in Matrigel. Format: cell-based. Conditions: organ of Corti single cells, Matrigel, 8 days. From the text: The same culture condition (EGF, Noggin, R-spondin1, or “ENR”) as used in Lgr5+ small intestinal stem cell cultures was first established.
Isolated organ of Corti from Lgr5-GFP mice were dissociated into single cells using accutase and cultured in multiple combinations of soluble factors and small molecules in Matrigel for 8 days. The resulting cultures were further dissociated into single cells and analyzed using FACS. […] In addition, the combination of EGF, bFGF and IGF-1 (designated as EFI) improved cell proliferation and GFP expression compared with the ENR condition (FIG. 14A-14C).
To further investigate the effects of individual growth factors when combined with CHIR and VPA, growth factors including Mitogenic growth factors (EGF, bFGF and IGF-1) as well as the Wnt agonist R-spondin 1 in combination with CHIR and VPA were tested.

With `Cc1cnc(-c2cnc(NCCNc3ccc(C#N)cn3)nc2-c2ccc(Cl)cc2Cl)[nH]1` [CHIR99021, 6-[[2-[[4-(2,4-Dichlorophenyl)-5-(5-methyl-1H-imidazol-2-yl)-2-pyrimidinyl]amino]ethyl]amino]-3-pyridinecarbonitrile], the “increase of colony-forming efficiency” value with single Lgr5-GFP cells (CHIR added to ENR, single Lgr5-GFP+ cells) was 20-50 fold. Moreover, in the test with single Lgr5-GFP cells, the GFP expression entry is “only moderately increased” and the cell proliferation entry is “significantly increased cell proliferation”. Moreover, the ChgA expression entry in the test with Lgr5+ stem cells is “did not significantly influence”. Moreover, in test [1], the “GFP expression (in words)” value is “not CHIR or VPA alone” and the “cell proliferation (in words)” value is recorded as “not CHIR or VPA alone”.
For the compound `CCCC(CCC)C(=O)O` [Valproic Acid], in the test on single Lgr5-GFP cells, the GFP expression result was “promoted GFP expression” and the cell proliferation entry is “minimal pro-proliferative effect”. Moreover, the “colony-forming efficiency (in words)” value with single Lgr5-GFP cells (single Lgr5-GFP+ cells, agent(s) added to ENR) is “only weakly increased”. Also, in the test with Lgr5+ stem cells, the ChgA expression entry is reported as “lower level of expression”, the Lysozyme expression result is “lower level of expression” and the Muc2 expression entry was “lower level of expression”. Further, in test [1], the “GFP expression (in words)” value was “not CHIR or VPA alone” and the “cell proliferation (in words)” value is “not CHIR or VPA alone”.
